Measurements published in patent publication US4863963A, “Novel cinnamoylamide derivatives” (Ono Pharmaceutical Co., Ltd., priority 1987, dated 1989).

target: 5α-reductase; test: Inhibitory activity on 5α-reductase in vitro (conversion of [4-C^14]-testosterone to dihydrotestosterone); format: biochemical; conditions: male rat prostate enzyme, 60 mins at 37° C., pH 7.4; compounds of the present invention
Description: Inhibitory activity on 5-reductase in vitro
The test was carried out with reference to the method of J. Shimazaki et al [See Endocrinol, Japon., 18, 179 (1971)).]
Male rat's prostate (4 g) was homogenized with its triple volume of 0.1M HEPES buffer (PH 7.4) including 0.25M cane sugar and was centrifuged at 3000 r.p.m. for 10 mins.
The precipitate was suspended into the buffer solution described above (10 ml), and the suspension was centrifuged at 3000 r.p.m for 5 mins. The resulting precipitate was suspended in the buffer solution(3 ml) described above and was used as a sauce of enzyme.
A reaction mixture (total volume 0.1 ml) of [4-C^14 ]-testosterone (1.5 n mol, 1.5×10^3 cpm), NADPH (0.5 μmol), enzyme solution (0.03 ml) described above and several kinds of concentration of the compounds in the present invention was incubated for 60 mins at 37° C. Enzyme reaction was quenched by addition of a mixture (0.4 ml) of chloroform and methanol (1:2), and the mixture was centrifuged at 2000 r.p.m for 3 mins. The supernatant (50 μl) was spotted on silica gel thin layer plate. The spot on the plate was developed with a mixture of chloroform, methanol and acetic acid (99.2:0. 6:0.2). Radioactivity of dihydrotestosteron generated on plate was measured by TLC scanner of radio-autography and inhibitory ratio was calculated.

Row | IC50 [nM] | SMILES
1 | 2100 | CCCCCOc1c(C)cc(/C(C)=C/C(=O)Nc2ccccc2OCCCC(=O)O)cc1C [Example 1-3, 4-[2-(3,5-dimethyl-4-pentyloxy-β-methylcinnamoylamino)phenoxy] butanoic acid]
2 | 3300 | CCCOc1cc(/C(C)=C/C(=O)Nc2ccccc2OCCCC(=O)O)cc(OCCC)c1OCCC [Example 1-7, 4-[2-(3,4,5-tripropoxy-β-methylcinnamoylamino)phenoxy] butanoic acid]
3 | 200 | CCCCc1ccc(/C(C)=C/C(=O)Nc2ccccc2OCCCC(=O)O)cc1 [Example 1-11, 4-[2-(4-butyl-β-methylcinnomoylamino)phenoxy] butanoic acid]
4 | 110 | C/C(=C\C(=O)Nc1ccccc1OCCCC(=O)O)c1ccc(CC(C)C)cc1 [Example 1-10, 4-[2-(4-isobutyl-β-methylcinnamoylamino)phenoxy] butanoic acid]
5 | 1000 | COc1c(C(C)(C)C)cc(/C(C)=C/C(=O)Nc2ccccc2OCCCC(=O)O)cc1C(C)(C)C [Example 1-4, 4-[2-(3,5-di-tert-butyl-methoxy-β-methylcinnamoylamino)phenoxy] butanoic acid]
6 | 530 | CCCCCOc1cc(/C=C(\C)C(=O)Nc2ccccc2OCCCC(=O)O)cc(OCCCCC)c1OCCCCC [Example 1-16]
7 | 1600 | CCCCCOc1c(OC)cc(/C(C)=C/C(=O)Nc2ccccc2OCCCC(=O)O)cc1OC [Example 1-1, 4-[2-(3,5-dimethoxy-4-pentyloxy-β-methylcinnomoylamino)phenoxyl] butanoic acid]
8 | 5600 | CCCCCOc1ccc(/C(C)=C/C(=O)Nc2ccccc2OCCCC(=O)O)c(Cl)c1Cl [Example 1-5, 4-[2-(2,3-dichloro-4-pentyloxy-β-methylcinnomoylamino)phenoxy] butanoic acid]
9 | 1800 | CCCCCOc1cc(/C(C)=C/C(=O)Nc2ccccc2OCCCC(=O)O)cc(OCCCCC)c1OCCCCC [Example 1-2]
10 | 280 | CCC(C)c1ccc(/C(C)=C/C(=O)Nc2ccccc2OCCCC(=O)O)cc1 (stereo not drawn) [Example 1-14, 4-[2-(4-sec-butyl-β-methylcinnomoylamino)phenoxy] butanoic acid]
11 | 9700 | CCOc1cc(/C(C)=C/C(=O)Nc2ccccc2OCCCC(=O)O)cc(OCC)c1OCC [Example 1-9, 4-[2-(3,4,5-triethoxy-β-methylcinnamoylamino)phenoxy] butanoic acid]
12 | 260 | CCCc1ccc(/C(C)=C/C(=O)Nc2ccccc2OCCCC(=O)O)cc1 [Example 1-12, 4-[2-(4-propyl-β-methylcinnamoylamino)phenoxy] utanoic acid]
13 | 1700 | CCCCOc1cc(/C(C)=C/C(=O)Nc2ccccc2OCCCC(=O)O)cc(OCCCC)c1OCCCC [Example 1-8]
14 | 2200 | CCCCCOc1cc(/C(C)=C/C(=O)Nc2ccccc2OCCCC(=O)O)c([N+](=O)[O-])cc1OCCCCC [Example 1-15, 4-[2-(2-nitro-4,5-dipentyloxy-β-methylcinnomoylamino)phenoxy] butanoic acid]
15 | 90 | CCCCCOc1c(Cl)cc(/C(C)=C/C(=O)Nc2ccccc2OCCCC(=O)O)cc1Cl [Example 1, 4-[2-(3,5-dichloro-4-pentyloxy-β-methylcinnamoylamino)phenoxy]butanoic acid]

Row | SMILES | IC50 [nM]
16 | CCCCOc1ccc(/C(C)=C/C(=O)Nc2ccccc2OCCCC(=O)O)cc1 [Example 1-13, 4-[2-(4-butoxy-β-methylcinnamoylamino)phenoxy] utanoic acid] | 380
17 | CCCCOc1c(Cl)cc(/C(C)=C/C(=O)Nc2ccccc2OCCCC(=O)O)cc1Cl [Example 1-6, 4-[2-(3,5-dichloro-4-butoxy-β-methylcinnamoylamino)phenyoxy] butanoic acid] | 1600
